Laboratory results: patent US20090263410A1, “USE OF TGF-B1 INHIBITOR PEPTIDES IN THE PREPARATION OF AN IMMUNE RESPONSE MODULATING AGENT” (Proyecto De Biomedicina Cima, S.L., priority 2005, published 2009)

System: lymphocyte cultures derived from nodes
Experiment: Induction of T-helper response to FIS: IL-2 and IFN-γ in lymph node lymphocyte culture supernatants
Format: in vivo, BALB/c mice
Description: The FIS peptide is characterized as a T-helper determinant derived from sperm whale myoglobin, amino acids (106-118). This peptide has been widely used for the induction of antibodies against haptenic peptides. We wanted to analyse the effect of peptide p144 on the induction of a cytokine profile characterized among other things by the increase in IFN-γ and IL-12. In this model the following was administered by […] to groups of 3 female BALB/c mice, 4 to 8 weeks old, (Harlan, Barcelona), distributing the animals in the following treatments: • FIS: mice which received by […] a 1:1 emulsion of Freund's incomplete adjuvant and saline serum which contained 50 μg of FIS. • FIS+p144: mice which received by […] a 1:1 emulsion of Freund's incomplete adjuvant and saline serum which contained 50 μg of FIS and 50 μg of p144.
10 days after immunization, the animals were sacrificed and the popliteal, inguinal and periaortic lymph nodes were extracted. The nodes were homogenized with a syringe and they were washed three times at 4° C. with washing medium (clean RPMI 1640 medium). Next, the cells were resuspended in complete medium (RPMI 1640 with 10% FBS, 2 mM of glutamine, 100 U/ml of penicillin, 100 μg/ml of streptomycin, 5×10^−5 M of β-mercaptoethanol, 25 mM of Hepes and sodium pyruvate), at a concentration of 5.3×10^6 cells/ml adding 150 μl in each well of a flat-bottomed 96-well plate. The different peptide concentrations (6 and 10 μM) were added in triplicate and at a volume of […] per well. The cells were cultured in a stove at 37° C. and with 5% CO2 for two days. […] These supernatants were frozen at −20° C. until the quantification of the cytokine concentration.
The quantity of IFN-γ was measured using a commercial ELISA (Mouse IFN-γ Duoset ELISA Development System, Genzyme, Cambridge and OPTEIA Mouse IFN-γ Set, Pharmingen, San Diego, USA) in accordance with the manufacturer's instructions. The results were expressed as pg/ml of IFN-γ using a standard curve of known quantities of IFN-γ.
The quantity of IL-2 in each supernatant was measured by studying the proliferation of the CTL.L. cell line, whose growth is IL-2 dependent (Lai M. et al., 1987). […]
To perform the assay, the supernatants were cultured with 3000-5000 CTL.L. cells per well, diluted to a final volume of 100 μl. […] The radioactivity was quantified in a scintillation counter (Top Count, Microplate Scintillation Counter, Packard) after the addition of 25 μl of scintillation liquid (MICROSCINT®, Packard, Bioscience Company) per well. The results of the counts were expressed as mU/ml of IL-2, interpolating the counts of each well in a standard curve. […]

[1] = 50 μg FIS + 50 μg p144 in FIA versus FIS alone, in vitro restimulation with FIS
[2] = lymphocytes from mice immunized with FIS+p144

Substance: p144: peptide inhibiting TGF-β1 whose amino acid sequence corresponds to SEQ ID NO: 1 (TSLDASIIWAMMQN; Synthetic Construct from human TGB-Beta1 type III receptor.Domain730-743)
- IFN-γ production compared to FIS [1]: reduced
- IL-2 production compared to FIS [1]: reduced
- IFN-γ production when restimulating in vitro against p144 [2]: some production of IFN-γ
- IL-2 production when restimulating in vitro against p144 [2]: production of IL-2
